Experimental data reported in US20180305669A1, “MICROTISSUE FORMATION USING STEM CELL-DERIVED HUMAN HEPATOCYTES” (FUJIFILM Cellular Dynamics, Inc., priority 2015, published 2018).

What was measured:
CYP1A2 = assay: P450-GLO CYP1A2 assay, drug-induced CYP activity in 3-D microtissue of iCell Hepatocytes; conditions: day 6 spheroids, 20% GELTREX, about 0.1 to 100 μM for about 24 hours

## O=C(O)Cc1ccccc1Nc1c(Cl)cccc1Cl [Diclofenac]
iCell Hepatocytes
  hepatotoxicity response: Increased sensitivity

## COc1ccc2[nH]c([S+]([O-])Cc3ncc(C)c(OC)c3C)nc2c1 (stereo not drawn) [Omeprazole]
CYP1A2
  induction of CYP1A2 activity: about 2.5 fold

## Cc1ccc(C(=O)c2cc(O)c(O)c([N+](=O)[O-])c2)cc1 [Tolcapone]
iCell Hepatocytes
  hepatotoxicity response: Increased sensitivity
